# From patent US6080542A, “Plant peptide transport gene” (priority 1997, dated 2000)
# Where two headings read alike, the source gives them in different places. Where no end group is shown, it is not given here. Eth = ethionine
# T1: yeast peptide transport system (Saccharomyces cerevisiae, UniProt P32901)
# T1 construct: The ptr2 gene encodes a 602 amino acid hydrophobic polypeptide with 12 putative hydrophobic segments; expressed in transfected cells; host or cells: S. cerevisiae peptide transport mutant PB1X-9B (ptr2-2) transformed with pJP9
# T1 sequence (P32901 1-601): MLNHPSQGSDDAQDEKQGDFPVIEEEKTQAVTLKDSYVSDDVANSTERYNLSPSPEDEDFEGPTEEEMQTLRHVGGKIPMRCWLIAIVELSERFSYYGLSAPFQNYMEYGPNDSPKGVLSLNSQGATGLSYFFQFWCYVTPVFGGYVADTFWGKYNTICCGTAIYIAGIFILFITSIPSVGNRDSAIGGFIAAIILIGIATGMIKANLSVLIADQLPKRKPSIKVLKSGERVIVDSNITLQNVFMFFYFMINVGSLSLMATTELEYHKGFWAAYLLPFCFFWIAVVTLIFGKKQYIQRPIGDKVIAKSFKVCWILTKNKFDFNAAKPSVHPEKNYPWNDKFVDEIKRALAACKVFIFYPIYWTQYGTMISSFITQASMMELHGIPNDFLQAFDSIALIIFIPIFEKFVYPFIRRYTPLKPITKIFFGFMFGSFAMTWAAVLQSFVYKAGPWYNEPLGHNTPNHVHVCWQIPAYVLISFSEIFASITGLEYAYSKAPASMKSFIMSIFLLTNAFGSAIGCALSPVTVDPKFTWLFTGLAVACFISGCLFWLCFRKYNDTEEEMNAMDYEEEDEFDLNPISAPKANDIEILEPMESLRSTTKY
# T2: Lys-Leu-Leu-Ala-Eth
# T2 peptide: KLLA-Eth
# T3: Lys-Leu-Leu-Leu-Eth
# T3 peptide: KLLL-Eth
# How the values were obtained:
# ATPTR2Ap = assay: Uptake of L-leucyl-L-[3H]leucine and competition, PB1X-9B[pPTF4]; conditions: for competition for uptake of [3H]-dileucine: PB1X-9B[pPTF4], pH 5.5, dileucine and leucine at 100-fold; for uptake of radiolabeled dileucine: PB1X-9B transformed with pPTF4, compared with wild type, trifluoroacetic acid (TFA)
# Protocol: The kinetics of ATPTR2A-mediated transport of peptides in yeast was evaluated by transforming pPTF4 into the S. cerevisiae peptide transport mutant, PB1X-9B and measuring the uptake of tritiated Leu-Leu dipeptide.
# (§1) L-leucyl-L [^3 H]leucine trifluoroacetic acid (TFA) was synthesized by standard solution phase techniques (Naider, F. et al., J. Biol. Chem. 249:9-20 (1974)). Uptake of L-leucyl-L-[H]leucine was performed as by Island, M. D. et al (J. Bacteriol. 169:2132-2136 (1987)), with the following modifications. Cells were grown to late log phase (26×10^7 cells/ml) overnight in SC with 2% glucose, 1 mg/ml allantoin plus amino acids to supplement auxotrophic markers. To induce peptide transport. 5-15 ml from this culture was added to 100 ml fresh medium such that the density was 3.0×10^6 cells/ml. This culture was allowed to grow (approx. 2 hrs.) to a density of 6.0×10^6 cells/ml and then harvested by centrifugation. The pelleted cells were washed twice with 10 ml cold dH2 O and suspended in cold 2% glucose to a final concentration of 2×10^8 cells/ml and incubated at 30° C. for 15 min. 500 μl of cells were then added to an equal volume of reaction mixture (30° C.) and incubated at 30°-C. At 20, 40, 60, 90, and 120 sec. intervals, 190 μl portions were removed, filtered over filters (pore size, 0.45 μm; GN-6; Gelman Sciences, Inc., Ann Arbor, Mich.) and washed 2 times with 5 ml cold, sterile dH2 O and once with 5 ml dH2 O at room temperatures. Filters were placed in scintillation vials with 5 ml of Budget-Solve scintillation cocktail (Research Products International Corp., Mount Prospect, Ill.) and counted (liquid scintillation counter; LS-7000; Beckman Instruments, Inc., Fullerton, Calif.). The final concentration of the components in the uptake assay was 1% glucose, 40 mM sodium citrate-potassium phosphate buffer (pH 5.5), and 1.5×105 M L-leucyl-L-[^3 H]leucine (specific activity, 10 mCi/mmole). Uptake is expressed as nanomoles per mg dry weight.
# [1] = target: T1, yeast peptide transport system; assay: Competition for L-leucyl-L-[3H]leucine uptake, PB1X-9B[pJP9]; format: cell-based; conditions: pH 5.5
# Protocol: as §1
# A. thaliana seedlings [2] = assay: Root assay, toxic peptide plus competitor peptide; format: in vivo, Arabidopsis thaliana
# Protocol: (§2) Approximately 15 A. thaliana seeds were placed in a row at one end of 10 cm plate containing 20 ml of Arabidopsis growth media (Kranz and Kirchheim 1987). The seeds were incubated 3-5 days in the light with the plate set in an upright position. When the roots were approximately 1-2 cm long, sterile paper filter disks were placed immediately in front of the root tips on the right and left side of the plate 2 cm from the edge of the plate. A line was drawn across the plate using the top of the disks as a guide marking zero growth. 5 μl of toxic amino acid analog, toxic peptide, or toxic peptide plus competitor was added to one disk while H2 O was place on the other disk. The plates were incubated for an additional 3-5 days. The average length of the roots was measured from the line and the results expressed as a percentage of control root growth.
# S288C = assay: Toxic peptide disk assay, wild type; format: cell-based, Saccharomyces cerevisiae; conditions: for diameter of zone of inhibition: disk with 0.38 μmoles, lawn of 5×10^6 cells, 30° C., 1 to 2 days, mean ± standard error
# Protocol: (§3) Since ptr mutants are deficient in peptide transport, they are unable to take up toxic peptides. This inability renders such mutants resistant to the toxic effect of the peptides. In order to determine whether the polynucleotides of the present invention could restore toxic peptide sensitivity to ptr2 mutants, the sensitivity of plasmid-transformed cells was determined. Sensitivity to toxic amino acids and peptides was measured as described by Island, M. D. et al. (J. Bacteriol. 169:2132-2136 (1987)). Briefly, a filter disk containing 0.38 μmoles of the toxic compound was placed on a lawn containing 5×10^6 cells and the plate incubated at 30° C. for 1 to 2 days. Resulting halos were measured across their diameter. The toxic dipeptides Leu-Eth, Ala-Eth, Leu-F-Phe and Oxalysine were synthesized by standard solution phase techniques (Naider, F. et al., J. Biol. Chem. 249:9-20 (1974). The results of this experiment are shown in Table 2 (values are the mean of the diameters of the observed zone of inhibition in millimeters±standard error of the mean of at least two independent experiments).
# PB1X-9B (pJP9) = assay: Toxic peptide disk assay, mutant with yeast peptide transport gene; format: cell-based, Saccharomyces cerevisiae; conditions: for diameter of zone of inhibition: disk with 0.38 μmoles, lawn of 5×10^6 cells, 30° C., 1 to 2 days, mean ± standard error
# Protocol: as §3
# PB1X-9B (pPTF4) = assay: Toxic peptide disk assay, mutant with plant gene ATPTR2A; format: cell-based, Saccharomyces cerevisiae; conditions: for diameter of zone of inhibition: disk with 0.38 μmoles, lawn of 5×10^6 cells, 30° C., 1 to 2 days, mean ± standard error
# Protocol: as §3
# [3] = test system: S. cerevisiae strains tested; assay: Toxic peptide disk assay, statements covering several strains; format: cell-based, Saccharomyces cerevisiae; conditions: wild type (S288C) and transformants
# Protocol: as §3
# A. thaliana seedlings [4] = assay: Root elongation of seedlings exposed to toxic peptides; format: in vivo, Arabidopsis thaliana
# Protocol: (§4) Thus, A. thaliana seeds and seedlings were exposed to Ethionine, Ala-Eth, Leu-Eth, Leu-fluorophenylalanine or oxalysine containing peptides, and the minimum inhibitory concentrations (MIC) were determined for each of the toxic compounds.
# as §2
# A. thaliana seeds = assay: Seed germination with toxic peptides (minimum inhibitory concentration); format: in vivo, Arabidopsis thaliana
# Protocol: as §4
# To measure the minimum inhibitory concentration of the toxic peptides, 10 to 15 A. thaliara seeds were place on solid Arabidopsis growth media with decreasing concentrations of toxic peptide. The seeds were incubated for 4 days in the dark and then scored for germination.
# PB1X-9B = assay: Toxic peptide disk assay, peptide transport mutant; format: cell-based, Saccharomyces cerevisiae
# Protocol: as §3
# PB1X-9B(pJP2) = assay: Dipeptide utilization, L-alanyl-L-ethionine sensitivity and dileucine transport of secondary transformants; format: cell-based, Saccharomyces cerevisiae; conditions: compared with wild type
# Protocol: Plasmid pJP2 was then reintroduced into PB1X-9B. The resulting secondary yeast transformants were tested for the ability to use a variety of dipeptides as sources of amino acids and for sensitivity to the toxic dipeptide L-alanyl-L-ethionine. Thus, strains were grown in YEPG broth at 30° C. to a titer of 10^8 cells per ml. The cells were harvested by centrifugation, washed twice with sterile water and resuspended at 1.0×10^7 cells per ml. A 5-μl aliquot was applied to solid MM containing dipeptides and amino acids as required. Four types of solid media were routinely used in assessing dipeptide utilization: MM+L-leucyl-L-leucine-L-lysine+L-histidine, MM-L-lysI-L-lysine-L-leucine-L-histidine (SEQ ID NO:12), MM-L-lysl-L-leucine-L-histidine, and MM-L-histydyl-L-leucine-L-lysine. All dipeptides were present at a concentration of 80 μM, while amino acids and nucleotide bases were added as required at standard concentrations (Sherman, F. et al., In: Methods in Yeast Genetics, Cold Spring Harbor Laboratory, Clod Spring Harbor, N.Y. (1986)). The plates were incubated at 30° C. for 48 hours and then scored for growth.
# Lys-Leu-Leu-Ala-Eth = target: T2, Lys-Leu-Leu-Ala-Eth; assay: cell-based or functional assay
# Lys-Leu-Leu-Leu-Eth = target: T3, Lys-Leu-Leu-Leu-Eth; assay: cell-based or functional assay
molecule,measurement,setting,value
"NCC(=O)CCC(=O)O [ALA, γ-aminolevulinic acid]",competition for uptake of [3H]-dileucine,ATPTR2Ap,lack of inhibition
same,competition for uptake of [3H]-dileucine,ATPTR2Ap; listed as γ-aminolevulinic acid,did not compete
same,competition for uptake of [3H]-dileucine,[1],able to compete
same,reversal of toxicity by competitor (in words),A. thaliana seedlings [2]; toxic peptide Ala-Eth,unable to reverse the inhibition
same,root growth with toxic peptide plus competitor,A. thaliana seedlings [2]; toxic peptide Ala-Eth,0 percentage of control root gro
same,reversal of toxicity by competitor (in words),A. thaliana seedlings [2]; toxic peptide Leu-Eth,unable to reverse the inhibition
same,root growth with toxic peptide plus competitor,A. thaliana seedlings [2]; toxic peptide Leu-Eth,0 percentage of control root gro
Leu-fluorophenylalanine [Leu-F-Phe],appearance of halo,S288C,hazy background within the halo
same,diameter of zone of inhibition,S288C,28.0 ± 4.0 millimeters
same,appearance of halo,PB1X-9B (pJP9),hazy background within the halo
same,diameter of zone of inhibition,PB1X-9B (pJP9),20.5 ± 3.0 millimeters
same,sensitivity or resistance to toxic compound,PB1X-9B (pPTF4),restores sensitivity
same,diameter of zone of inhibition,PB1X-9B (pPTF4),37.0 ± 1.0 millimeters
same,sensitivity or resistance to toxic compound,PB1X-9B (pPTF4); listed as leucine-fluorophenylaianine,greater and more complete sensitivity
same,sensitivity to toxic compound,[3],less sensitive
same,amount that inhibits root elongation of seedlings,A. thaliana seedlings [4],not inhibited
same,amount that inhibits germination of seeds,A. thaliana seeds; A. thaliana seeds,not inhibited
"CCSCC[C@H](N)C(=O)O [Eth, ethionine]",diameter of zone of inhibition,S288C,39.0 ± 3.0 millimeters
same,sensitivity or resistance to toxic compound,PB1X-9B,sensitive
same,diameter of zone of inhibition,"PB1X-9B; disk with 0.38 μmoles, lawn of 5×10^6 cells, 30° C., 1 to 2 days, mean ± standard error",44.5 ± 3.5 millimeters
same,diameter of zone of inhibition,PB1X-9B (pJP9),46.5 ± 1.5 millimeters
same,sensitivity or resistance to toxic compound,PB1X-9B (pPTF4),sensitive
same,diameter of zone of inhibition,PB1X-9B (pPTF4),46.5 ± 0.5 millimeters
same,sensitivity to toxic compound,[3],most sensitive
same,root length at which growth was arrested,A. thaliana seeds; seeds exposed to the toxic compound,1-2 mm
L-leucyl-L [^3 H]leucine trifluoroacetic acid (TFA) [[H^3]-dileucine],uptake of radiolabeled dileucine,ATPTR2Ap; listed as radiolabeled dileucine,comparable to that of wild type
same,uptake of radiolabeled dileucine,ATPTR2Ap,wild-type levels
same,transport of radiolabeled dileucine,PB1X-9B(pJP2),levels approximating those of the wild type
tri-Ala: competitor tripeptide,competition for uptake of [3H]-dileucine,ATPTR2Ap,uptake competition similar to that seen for Leu-Leu
same,competition for uptake of [3H]-dileucine,[1],uptake competition similar to that seen for Leu-Leu
same,reversal of toxicity by competitor (in words),A. thaliana seedlings [2]; toxic peptide Ala-Eth,unable to reverse the inhibition
same,root growth with toxic peptide plus competitor,A. thaliana seedlings [2]; toxic peptide Ala-Eth,0 percentage of control root gro
same,reversal of toxicity by competitor (in words),A. thaliana seedlings [2]; toxic peptide Leu-Eth,unable to reverse the inhibition
yeast peptide transporter SACPTR2p (other) MLNHPSQGSDDAQDEKQGDFPVIEEEKTQAVTLKDSYVSDDVANSTERYNLSPSPEDEDFEGPTEEEMQTLRHVGGKIPMRCWLIAIVELSERFSYYGLSAPFQNYMEYGPNDSPKGVLSLNSQGATGLSYFFQFWCYVTPVFGGYVADTFWGKYNTICCGTAIYIAGIFILFITSIPSVGNRDSAIGGFIAAIILIGIATGMIKANLSVLIADQLPKRKPSIKVLKSGERVIVDSNITLQNVFMFFYFMINVGSLSLMATTELEYHKGFWAAYLLPFCFFWIAVVTLIFGKKQYIQRPIGDKVIAKSFKVCWILTKNKFDFNAAKPSVHPEKNYPWNDKFVDEIKRALAACKVFIFYPIYWTQYGTMISSFITQASMMELHGIPNDFLQAFDSIALIIFIPIFEKFVYPFIRRYTPLKPITKIFFGFMFGSFAMTWAAVLQSFVYKAGPWYNEPLGHNTPNHVHVCWQIPAYVLISFSEIFASITGLEYAYSKAPASMKSFIMSIFLLTNAFGSAIGCALSPVTVDPKFTWLFTGLAVACFISGCLFWLCFRKYNDTEEEMNAMDYEEEDEFDLNPISAPKANDIEILEPMESLRSTTKY,"diameter of the zone of inhibition, disk assay with 0.38 µmoles",L-alanyl-L-ethionine,42.5 mm
same,"diameter of the zone of inhibition, disk assay with 0.38 µmoles",Leu-Eth,47 mm
same,"diameter of the zone of inhibition, disk assay with 0.38 µmoles",Leu-F-Phe,20.5 mm
same,"diameter of the zone of inhibition, disk assay with 0.38 µmoles",Lys-Ala-Eth,36 mm
same,"diameter of the zone of inhibition, disk assay with 0.38 µmoles",Lys-Leu-Ala-Eth,0 mm
same,"diameter of the zone of inhibition, disk assay with 0.38 µmoles",Lys-Leu-Eth,36 mm
same,"diameter of the zone of inhibition, disk assay with 0.38 µmoles",Lys-Leu-Leu-Eth,0 mm
same,"diameter of the zone of inhibition, disk assay with 0.38 µmoles",Lys-Leu-Leu-Ala-Eth,0 mm
same,"diameter of the zone of inhibition, disk assay with 0.38 µmoles",Lys-Leu-Leu-Leu-Eth,0 mm
